Drawing on BindingDB's records for doi:10.1021/jm00010a025 (Merck Sharp & Dohme Research Laboratories, 1995), this text covers IC50 for 13 molecules.

Usually IC50 stands for the concentration that inhibits the measured activity by half.

Assay [1] is described as follows: Binding activity against 5-hydroxytryptamine 2C receptor from pig cortex membrane using [3H]mesulergine as radioligand.
A short description of assay [2]: Binding activity against 5-hydroxytryptamine 3 receptor from rat cortex homogenate using [3H]-Q-ICS 205-930 as radioligand.
Assay [3] is described as follows: Binding activity against 5-hydroxytryptamine 3 receptor from rat cortex homogenate using [3H]-Q-ICS 205-930 as radioligand; NA Not Available.
Assay [4] can be described thus: Binding activity against 5-hydroxytryptamine 3 receptor from rat cortex homogenate using [3H]-Q-ICS 205-930 as radioligand. The source holds these as a separate data set.

`Cc1nccn1Cc1ccc2[nH]cc(CCN(C)C)c2c1`: the IC50 in assay [1] came to 3160 nM; in assay [2] it was 63.1 nM. As for `CN(C)CCc1c[nH]c2ccc(Cc3nncn3C)cc12`, the IC50 in assay [2] worked out at 25.1 nM. In other words, the double-digit nanomolar range. In the case of `CCn1nnc(Cc2ccc3[nH]cc(CCN(C)C)c3c2)n1`, the IC50 in assay [2] was determined as 126 nM. With `Cc1nccn1-c1ccc2[nH]cc(CCN(C)C)c2c1`, the IC50 in assay [2] was 7.94 nM. With `CN(C)CCc1c[nH]c2ccc(Cn3ccnn3)cc12`, in assay [3], the IC50 stood at 50.1 nM.

Molecule `CN(C)CCc1c[nH]c2ccc(Cc3nnn(C)n3)cc12` gave an IC50 in assay [2] of 79.4 nM. That is a double-digit nanomolar value. In the case of `CN(C)CCc1c[nH]c2ccc(Cn3cnnn3)cc12`, the IC50 was 2000 nM in assay [1] and 39.8 nM in assay [2]. Turning to `CN(C)CCc1c[nH]c2ccc(Cn3ccnc3)cc12`, the IC50 in assay [4] was found to be 31.6 nM; in assay [1], 3980 nM. On to `CN(C)CCc1c[nH]c2ccc(Cc3nnn[nH]3)cc12`, for which the IC50 in assay [1] is more than 10000 nM; in assay [2], 3980 nM. Consider `CN(C)CCc1c[nH]c2ccc(Cn3ncnn3)cc12`, for which the IC50 in assay [1] worked out at 1000 nM; in assay [2] it was 39.8 nM.

`CN(C)CCc1c[nH]c2ccc(Cc3nnnn3C)cc12` yielded an IC50 in assay [2] of 25.1 nM. That is a double-digit nanomolar value. Take `CN(C)CCc1c[nH]c2ccc(Cc3ncnn3C)cc12`: the IC50 in assay [4] was 100 nM; in assay [1], more than 10000 nM. Take `CCn1nnnc1Cc1ccc2[nH]cc(CCN(C)C)c2c1`: the IC50 in assay [1] is more than 10000 nM; in assay [2], 25.1 nM.
